What was measured:
Assay type in all cases: in vivo
[1] = tested on: barnyardgrass (Echinochloa crus-galli); experiment: Test A postemergence; details: for Barnyardgrass plant response rating: visual injury rating on 0 to 100 scale (0 no effect, 100 complete control), approx. 10 d
In short: (§1)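 Visual injury scores from 0, no effect, to 100, complete control, were assigned versus untreated controls roughly 10 d after treatment in the greenhouse. Test chemicals, formulated with surfactant in a non-phytotoxic solvent, were applied to planted seeds as a preemergence soil spray or postemergence to one- to two-leaf plants 2 to 10 cm tall, in loam–sand soil.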

[2] = tested on: Galium (catchweed bedstraw, Galium aparine); experiment: Test A postemergence; details: for Galium plant response rating: visual injury rating on 0 to 100 scale (0 no effect, 100 complete control), approx. 10 d
In short: as §1

[3] = tested on: blackgrass (Alopecurus myosuroides); experiment: Test A postemergence; details: for Blackgrass plant response rating: visual injury rating on 0 to 100 scale (0 no effect, 100 complete control), approx. 10 d
In short: as §1

[4] = tested on: ragweed (common ragweed, Ambrosia elatior); experiment: Test A postemergence; details: for Ragweed plant response rating: visual injury rating on 0 to 100 scale (0 no effect, 100 complete control), approx. 10 d
In short: as §1

[5] = tested on: pigweed (Amaranthus retroflexus); experiment: Test A postemergence; details: for Pigweed plant response rating: visual injury rating on 0 to 100 scale (0 no effect, 100 complete control), approx. 10 d
In short: as §1

[6] = tested on: corn (Zea mays); experiment: Test A postemergence; details: for Corn plant response rating: visual injury rating on 0 to 100 scale (0 no effect, 100 complete control), approx. 10 d
In short: as §1

[7] = tested on: Kochia (Kochia scoparia); experiment: Test A postemergence; details: for Kochia plant response rating: visual injury rating on 0 to 100 scale (0 no effect, 100 complete control), approx. 10 d
In short: as §1

[8] = tested on: giant foxtail (Setaria faberii); experiment: Test A postemergence; details: for Foxtail, Giant plant response rating: visual injury rating on 0 to 100 scale (0 no effect, 100 complete control), approx. 10 d
In short: as §1

[9] = tested on: wheat (Triticum aestivum); experiment: Test A postemergence; details: for Wheat plant response rating: visual injury rating on 0 to 100 scale (0 no effect, 100 complete control), approx. 10 d
In short: as §1

[10] = tested on: ryegrass, Italian (Italian ryegrass, Lolium multiflorum); experiment: Test A postemergence; details: for Ryegrass, Italian plant response rating: visual injury rating on 0 to 100 scale (0 no effect, 100 complete control), approx. 10 d
In short: as §1

[11] = tested on: barnyardgrass (Echinochloa crus-galli); experiment: Test A preemergence; details: for Barnyardgrass plant response rating (0 to 100 scale, 0 is no effect, 100 is complete control): visual injury approx. 10 d
In short: as §1

[12] = tested on: ragweed (common ragweed, Ambrosia elatior); experiment: Test A preemergence; details: for Ragweed plant response rating (0 to 100 scale, 0 is no effect, 100 is complete control): visual injury approx. 10 d
In short: as §1

[13] = tested on: pigweed (Amaranthus retroflexus); experiment: Test A preemergence; details: for Pigweed plant response rating (0 to 100 scale, 0 is no effect, 100 is complete control): visual injury approx. 10 d
[14] = tested on: Kochia (Kochia scoparia); experiment: Test A preemergence; details: for Kochia plant response rating (0 to 100 scale, 0 is no effect, 100 is complete control): visual injury approx. 10 d
In short: as §1

[15] = tested on: giant foxtail (Setaria faberii); experiment: Test A preemergence; details: for Foxtail, Giant plant response rating (0 to 100 scale, 0 is no effect, 100 is complete control): visual injury approx. 10 d
In short: as §1

[16] = tested on: ryegrass, Italian (Italian ryegrass, Lolium multiflorum); experiment: Test A preemergence; details: for Ryegrass, Italian plant response rating (0 to 100 scale, 0 is no effect, 100 is complete control): visual injury approx. 10 d
In short: as §1

[17] = tested on: barnyardgrass (Echinochloa crus-galli); experiment: Test B flooded paddy test; details: Flood, 250 g ai/ha; 0 to 100 scale where 0 is no effect and 100 is complete control; 13 to 15 d
In short: (§2)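 Visual ratings (0 none to 100 complete control) are relative to untreated plants, taken 13–15 d after treatment in a greenhouse. Test material went straight into floodwater standing 3 cm above the soil, kept constant, on plants at the 2-leaf stage.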

[18] = tested on: rice (Oryra sativa); experiment: Test B flooded paddy test; details: Flood, 250 g ai/ha; 0 to 100 scale where 0 is no effect and 100 is complete control; 13 to 15 d
In short: as §2

[19] = tested on: ducksalad (Heteranthera limosa); experiment: Test B flooded paddy test; details: Flood, 250 g ai/ha; 0 to 100 scale where 0 is no effect and 100 is complete control; 13 to 15 d
In short: as §2

[20] = tested on: sedge, umbrella (small-flower umbrella sedge, Cyperus difformis); experiment: Test B flooded paddy test; details: Flood, 250 g ai/ha; 0 to 100 scale where 0 is no effect and 100 is complete control; 13 to 15 d
In short: as §2

[21] = 500 g ai/ha, postemergence, 0 to 100 scale, 0 no effect, 100 complete control
[22] = 125 g ai/ha, preemergence, 0 to 100 scale (0 no effect, 100 complete control)
[23] = 125 g ai/ha, postemergence, visual rating after approx. 10 d, 0 to 100 scale (0 no effect, 100 complete control)
[24] = Postemergence, 500 g ai/ha, 0 to 100 scale where 0 is no effect and 100 is complete control
[25] = 125 g ai/ha, Preemergence, visual injury after approximately 10 d, 0 to 100 scale where 0 is no effect and 100 is complete control
[26] = 500 g ai/ha, preemergence, 0 to 100 scale, 0 = no effect, 100 = complete control

Cc1c(F)ccc(NC(=O)C2C(=O)NCC2c2cccc(C(F)(F)F)c2)c1F (stereo not drawn) [Compound 463]
Barnyardgrass plant response rating ([1]; 125 g ai/ha, postemergence): 50 | Plant response rating, Barnyardgrass [1, 21]: 70 | Galium plant response rating ([2]; 125 g ai/ha, postemergence): 0 | Plant response rating, Galium [2, 21]: 0 | Blackgrass plant response rating ([3]; 125 g ai/ha, postemergence): 20 | Plant response rating, Blackgrass [3, 21]: 70 | Ragweed plant response rating ([4]; 125 g ai/ha, postemergence): 0 | Plant response rating, Ragweed [4, 21]: 0 | Pigweed plant response rating ([5]; 125 g ai/ha, postemergence): 0 | Plant response rating, Pigweed [5, 21]: 0 | Corn plant response rating ([6]; 125 g ai/ha, postemergence): 0 | Plant response rating, Corn [6, 21]: 0 | Kochia plant response rating ([7]; 125 g ai/ha, postemergence): 0 | Plant response rating, Kochia [7, 21]: 0 | Foxtail, Giant plant response rating ([8]; 125 g ai/ha, postemergence): 70 | Plant response rating, Foxtail, Giant [8, 21]: 70 | Wheat plant response rating ([9]; 125 g ai/ha, postemergence): 0 | Plant response rating, Wheat [9, 21]: 0 | Ryegrass, Italian plant response rating ([10]; 125 g ai/ha, postemergence): 0 | Plant response rating, Ryegrass, Italian [10, 21]: 30 | Plant response rating, Barnyardgrass [11, 22]: 50 | Barnyardgrass plant response rating (0 to 100 scale, 0 is no effect, 100 is complete control) ([11]; Preemergence, 500 g ai/ha): 80 | Plant response rating, Ragweed [12, 22]: 0 | Ragweed plant response rating (0 to 100 scale, 0 is no effect, 100 is complete control) ([12]; Preemergence, 500 g ai/ha): 0 | Plant response rating, Pigweed [13, 22]: 0 | Pigweed plant response rating (0 to 100 scale, 0 is no effect, 100 is complete control) ([13]; Preemergence, 500 g ai/ha): 0 | Plant response rating, Kochia [14, 22]: 0 | Kochia plant response rating (0 to 100 scale, 0 is no effect, 100 is complete control) ([14]; Preemergence, 500 g ai/ha): 0 | Plant response rating, Foxtail, Giant [15, 22]: 80 | Foxtail, Giant plant response rating (0 to 100 scale, 0 is no effect, 100 is complete control) ([15]; Preemergence, 500 g ai/ha): 90 | Plant response rating, Ryegrass, Italian [16, 22]: 0 | Ryegrass, Italian plant response rating (0 to 100 scale, 0 is no effect, 100 is complete control) ([16]; Preemergence, 500 g ai/ha): 20 | Plant response rating, Barnyardgrass [17]: 25 | Plant response rating, Rice [18]: 0 | Plant response rating, Ducksalad [19]: 70 | Plant response rating, Sedge, Umbrella [20]: 0

CN1CC(c2cccc(OC(F)F)c2)C(C)(C(=O)Nc2cccc(F)c2F)C1=O (stereo not drawn) [Compound 619]
Plant response rating, Barnyardgrass [1, 23]: 0 | Plant response rating, Barnyardgrass [1, 24]: 0 | Plant response rating, Galium [2, 23]: 0 | Plant response rating, Galium [2, 24]: 0 | Plant response rating, Blackgrass [3, 23]: 0 | Plant response rating, Blackgrass [3, 24]: 0 | Plant response rating, Ragweed [4, 23]: 0 | Plant response rating, Ragweed [4, 24]: 0 | Plant response rating, Pigweed [5, 23]: 0 | Plant response rating, Pigweed [5, 24]: 0 | Plant response rating, Corn [6, 23]: 0 | Plant response rating, Corn [6, 24]: 0 | Plant response rating, Kochia [7, 23]: 0 | Plant response rating, Kochia [7, 24]: 0 | Plant response rating, Foxtail, Giant [8, 23]: 0 | Plant response rating, Foxtail, Giant [8, 24]: 0 | Plant response rating, Wheat [9, 23]: 0 | Plant response rating, Wheat [9, 24]: 0 | Plant response rating, Ryegrass, Italian [10, 23]: 0 | Plant response rating, Ryegrass, Italian [10, 24]: 0 | Plant response rating, Barnyardgrass [11, 25]: 0 | Plant response rating, Barnyardgrass [11, 26]: 0 | Plant response rating, Ragweed [12, 25]: 0 | Plant response rating, Ragweed [12, 26]: 0 | Plant response rating, Pigweed [13, 25]: 0 | Plant response rating, Pigweed [13, 26]: 0 | Plant response rating, Kochia [14, 25]: 20 | Plant response rating, Kochia [14, 26]: 20 | Plant response rating, Foxtail, Giant [15, 25]: 0 | Plant response rating, Foxtail, Giant [15, 26]: 0 | Plant response rating, Ryegrass, Italian [16, 25]: 0 | Plant response rating, Ryegrass, Italian [16, 26]: 0 | Plant response rating, Barnyardgrass [17]: 0 | Plant response rating, Rice [18]: 0 | Plant response rating, Ducksalad [19]: 0 | Plant response rating, Sedge, Umbrella [20]: 0

O=C1NCC(c2ccc(F)cc2F)C1C(=O)Nc1ccc(F)cc1F (racemic) [Compound 518]
Barnyardgrass plant response rating ([1]; 125 g ai/ha, postemergence): 0 | Plant response rating, Barnyardgrass [1, 24]: 50 | Galium plant response rating ([2]; 125 g ai/ha, postemergence): 0 | Plant response rating, Galium [2, 24]: 20 | Blackgrass plant response rating ([3]; 125 g ai/ha, postemergence): 0 | Plant response rating, Blackgrass [3, 24]: 0 | Ragweed plant response rating ([4]; 125 g ai/ha, postemergence): 0 | Plant response rating, Ragweed [4, 24]: 0 | Pigweed plant response rating ([5]; 125 g ai/ha, postemergence): 0 | Plant response rating, Pigweed [5, 24]: 0 | Corn plant response rating ([6]; 125 g ai/ha, postemergence): 0 | Plant response rating, Corn [6, 24]: 0 | Kochia plant response rating ([7]; 125 g ai/ha, postemergence): 0 | Plant response rating, Kochia [7, 24]: 0 | Foxtail, Giant plant response rating ([8]; 125 g ai/ha, postemergence): 20 | Plant response rating, Foxtail, Giant [8, 24]: 70 | Wheat plant response rating ([9]; 125 g ai/ha, postemergence): 0 | Plant response rating, Wheat [9, 24]: 0 | Ryegrass, Italian plant response rating ([10]; 125 g ai/ha, postemergence): 0 | Plant response rating, Ryegrass, Italian [10, 24]: 0 | Plant response rating, Barnyardgrass [11, 25]: 0 | Barnyardgrass plant response rating (0 to 100 scale, 0 is no effect, 100 is complete control) ([11]; Preemergence, 500 g ai/ha): 60 | Plant response rating, Ragweed [12, 25]: 0 | Ragweed plant response rating (0 to 100 scale, 0 is no effect, 100 is complete control) ([12]; Preemergence, 500 g ai/ha): 0 | Plant response rating, Pigweed [13, 25]: 0 | Pigweed plant response rating (0 to 100 scale, 0 is no effect, 100 is complete control) ([13]; Preemergence, 500 g ai/ha): 0 | Plant response rating, Kochia [14, 25]: 0 | Kochia plant response rating (0 to 100 scale, 0 is no effect, 100 is complete control) ([14]; Preemergence, 500 g ai/ha): 0 | Plant response rating, Foxtail, Giant [15, 25]: 70 | Foxtail, Giant plant response rating (0 to 100 scale, 0 is no effect, 100 is complete control) ([15]; Preemergence, 500 g ai/ha): 90 | Plant response rating, Ryegrass, Italian [16, 25]: 0 | Ryegrass, Italian plant response rating (0 to 100 scale, 0 is no effect, 100 is complete control) ([16]; Preemergence, 500 g ai/ha): 0 | Plant response rating, Barnyardgrass [17]: 0 | Plant response rating, Rice [18]: 0 | Plant response rating, Ducksalad [19]: 65 | Plant response rating, Sedge, Umbrella [20]: 0
